From patent publication US20250332139A1, “PS[…] AND THEIR USE FOR TREATING […] AND NE[…] DISORDERS” (Transcend Therapeutics, Inc., priority 2021, published 2025)
Read-outs that look alike come from different tables or passages of the source.

Columns and labels:
Sprague Dawley rats [1] = assay: Forced Swim Test (FST); format: in vivo, rat
Description: The Forced Swim Test (FST) is a classic, and the most used preclinical behavioral assay to screen compounds with antidepressant-like activity and has high predictive and face validity (Porsolt et al. (1977) Nature 266:730; Borsini and Meli (1988) Psychopharmacology 94:147). The premise of the FST is that when rats are placed into a cylinder filled with water, they will initially try to escape, but over time will become immobile. This increased immobility reflects behavioral despair, modeling a depressive-like state.
Forced Swim Test (FST): In the FST trial, rats were placed in a circular plexiglass container filled with water, with no means of escape. Water temperature was maintained at 22-25° C. and changed for every animal. After an acclimation period, rats were timed for inactivity (failure to struggle), activity, swim time and climbing time. Day 1 consisted of a 15 min acclimation trial, and Day 2 (24 h later) consisted of the 5 min test. A time sampling procedure was employed where animals were observed every 5 sec and scored for immobility, swimming, or climbing. Fluoxetine (10 mg/kg, IP, Sigma Aldrich) or 0.9% sterile saline vehicle (vehicle 3X group) were administered 23.5, 5, and 1 h before testing in the FST. […] The experimenter was blinded to treatment.
Forced Swim Test: In the FST trial, rats were placed in a circular plexiglass container filled with water, with no means of escape. Water temperature was maintained at 22-25° C. and changed for every animal. After an acclimation period, rats were timed for inactivity (failure to struggle), activity, swim time and climbing time. Day 1 consisted of a 15 min acclimation trial, and Day 2 (24 h later) consisted of the 5 min test. A time sampling procedure was employed where animals were observed every 5 sec and scored for immobility, swimming, or climbing. Fluoxetine (10 mg/kg, IP, Sigma Aldrich) or 0.9% sterile saline vehicle (vehicle 3X group) were administered 23.5, 5, and 1 h before testing in the FST. 2C-B (2.5, 10, or 20 mg/kg, IP, Cayman Chemical) or 0.9% saline vehicle (vehicle 1X group) were administered 30 min prior to FST testing. The experimenter was blinded to treatment.
Drug Treatment: Fluoxetine (10 mg/kg, IP, Sigma Aldrich) or 0.9% sterile saline vehicle were administered 23.5, 5, and 1 h before testing in the FST. […] Control animals received fluoxetine alone, methylone alone, or saline vehicle.
Forced Swim Test: In the FST trial, rats were placed in a circular plexiglass container filled with water, with no means of escape. Water temperature was maintained at 22-25° C. and changed for every animal. After an acclimation period, rats were timed for inactivity (failure to struggle), activity, swim time and climbing time. The experimenter and scorer were blind to treatment group. Day 1 consisted of a 15 min acclimation trial, and Day 2 (24 h later) consisted of the 5 min test. A time sampling procedure was employed where animals were observed every 5 sec and scored for immobility, swimming, or climbing.
The FST was performed and scored by an experimenter blind to treatment group according to standard protocols and based on a “modified FST” procedure (Slattery and Cryan (2012) Nat Protoc, 7:1009). Briefly, rats were placed in a circular plexiglass container (29.2 cm diameter, 49.5 cm height) filled with water to a depth of 30 cm so rats could not support themselves by touching the bottom of the tank. Water was maintained at 22-25° C. and was changed for every animal. Day 1 (Training) consisted of a 15 min acclimation trial, and Day 2 (Testing, 24 h later) consisted of the 5 min test. A time sampling procedure was employed where animals were observed every 5 seconds for the duration of the test session (60 counts or 5 minutes) and scored for immobility (defined as the failure to struggle), swimming (defined as a circular movement around the tank), or climbing (defined as an upwards escape behavior). […]

C57Bl/6 mice = assay: Cisplatin CIPN model, von Frey test; format: in vivo, mouse
Experimental: Cisplatin, a platinum-based chemotherapy agent has been used to reduce pain thresholds in a model of CIPN. Effects of acute (single higher dose) or sub-chronic (7 days repeated lower dose) 2C-B on pain thresholds were investigated in cisplatin-treated animals compared with vehicle or cisplatin-treated controls.
Methods: Male C57Bl/6 mice aged 12-16 weeks were used. Cisplatin (2.5 mg/kg) or vehicle was administered on days 1-5 and 11-15.
Vehicle, sub-chronic 2C-B (5 mg/kg once daily days 17-23) or acute 2C-B (20 mg/kg once on day 17) was then administered IP (N=16-18/group). VonFrey testing took place on day 17 (30 min post-dose) and days 21 and 24 (pre-dose) to monitor the effects of 2C-B in cisplatin treated animals, compared with animals receiving cisplatin+vehicle or vehicle+vehicle.
For von Frey measurements, animals were placed into wire bottom cubicles with opaque Plexiglas walls, allowing access to the underside of their paws. Animals were habituated to this environment for at least 30 minutes before the start of the von Frey filament application. Static allodynia was measured using Semmes-Weinstein von Frey filaments (Stoelting, Wood Dale, IL). Mechanical allodynia was tested by touching the plantar surface of the animals' right and left hind paws with von Frey filaments which deliver a calibrated amount of force (0.07, 0.16, 0.4, 0.6. 1.0, 2.0, 4.0, 6.0 g). […]

experienced drug users = settings: cited from earlier work
Sprague Dawley rats [2] = settings: previous literature reports (Hibicke 2020; Yang 2013; Tizabi 2012); cited from earlier work
C57BL/6J mice = assay: Fear extinction paradigm (PTSD mouse model); format: in vivo; settings: MBDB 5 mg/kg IP, day 2
Description: Effective PTSD treatments facilitate the disassociation between a traumatic memory and the patient's fear response, making cues for the traumatic memory evoke less of a fear response. This is modeled in the mouse fear extinction paradigm (see FIG. 9A) which takes place over 3 days. On day 1 (fear conditioning), mice are trained to acquire a “traumatic memory,” namely associating the conditioned stimulus (CS, tone) to the unconditioned stimulus (US, foot shock). On day 2 (extinction training), they are trained to forget the traumatic memory association by presenting the CS 6 times (with no US) in a novel environment. On day 3 (extinction recall), the mice are “asked” if that tone (CS) still elicits a fearful response, as measured by the time spent freezing when the tone is presented. Less time freezing means better extinction recall. Drugs that improve extinction recall reduce freezing time on day 3, and, therefore, show potential as a PTSD treatment.
Methods: Cued fear conditioning was performed in C57BL/6J mice. On day 1, animals were placed in the chambers and presented with a training session (CS-US pairing). The training consisted of a 2-minute habituation followed by a 30-second, 80 dB tone; during the last 2 seconds of the tone animals received a 1 mA foot shock. This US-CS procedure occurred once for a total of one paired presentation of tone and shock. Freezing behavior (immobility) was recorded in 5-10-see intervals during the session. Percent baseline freezing behavior was determined in the 2-minute habituation period. On day 3, animals were placed in context B, in which tactile and odor cues differed from context A. Following a 2 minute acclimation period animals received 4×30 sec presentations of the CS (tone) in the absence of the US (footshock), with a 45 sec interval between presentations. Freezing was recorded in 5-10-see intervals to measure baseline freezing response to the altered context, and freezing response to each tone cue presentation. […] On day 4 (Post-Extinction Testing in Drug-Free State), animals were placed in Context B. Following a 2 min acclimation period, animals received 4×30 sec extinction tone duration presentations of the CS (tone) in the absence of the US (footshock), with a 45 sec interval between presentations. Freezing was recorded in 5-10-see intervals to measure baseline freezing response to the altered context, and freezing response to each tone cue presentation.

[3] = test system: serotonergic terminals in the cortex and hippocampus; settings: (±)-MBDB.HCl 25 mg/kg IP every 12 hours for 4 days, 2 weeks post-treatment; cited from earlier work
[4] = target: T1, Human serotonin 5HT2B receptor (Homo sapiens, UniProt P41595); assay: 5HT2B competitive radioligand binding; settings: ratio of Ki values
T1 construct: host or cells: receptor-expressing membranes
T1 sequence (P41595 whole entry): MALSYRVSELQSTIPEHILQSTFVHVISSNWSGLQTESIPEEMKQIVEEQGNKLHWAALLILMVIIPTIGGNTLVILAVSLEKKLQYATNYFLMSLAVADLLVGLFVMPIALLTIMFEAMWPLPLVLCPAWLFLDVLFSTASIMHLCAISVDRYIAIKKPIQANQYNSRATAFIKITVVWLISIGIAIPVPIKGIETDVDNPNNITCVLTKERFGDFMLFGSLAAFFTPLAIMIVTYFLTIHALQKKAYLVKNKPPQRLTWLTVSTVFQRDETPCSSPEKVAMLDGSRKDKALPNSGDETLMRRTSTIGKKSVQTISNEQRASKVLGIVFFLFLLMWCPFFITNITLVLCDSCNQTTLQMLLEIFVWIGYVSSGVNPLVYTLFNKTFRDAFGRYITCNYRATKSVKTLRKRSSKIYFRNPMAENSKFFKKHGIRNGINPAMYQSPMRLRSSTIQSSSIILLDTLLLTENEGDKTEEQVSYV
Experimental: Human serotonin 5HT2B receptor membrane preparations were divided into aliquots. On the day of the assay, membranes were diluted at 1:200 in incubation buffer. […] To each well was added 150 μL membrane preparation, 50 μL test compound, non-specific compound, or buffer alone, as well as 50 μL radioligand. The plate was incubated at 35° C. for 90 minutes with gentle agitation. […] For each concentration of drug, non-specific binding was subtracted from total binding to give specific binding. […] Ki was subsequently calculated using the ChengPrusoff equation.

Q: With `COc1cc(CCN)c(OC)cc1Br` [2C-B, 4-Bromo-2,5-dimethoxyphenethylamine] as the compound, how does the climbing (Sprague Dawley rats [1]; 2C-B high-dose group (20 mg/kg IP)) read?
A: Its climbing is “significantly decreased”.

Q: And the swimming (Sprague Dawley rats [1]; 2C-B single dose IP 30 min before test)?
A: Its swimming is “significant increase in swimming”.

Q: And the “effect of repeated doses” value (C57Bl/6 mice; 5 mg/kg 2C-B once daily days 17-23)?
A: Its value is “sustained beneficial effect”.

Q: And the “pain thresholds in cisplatin-treated animals” value (C57Bl/6 mice; single dose 5 or 20 mg/kg IP, within 30 min, day 17)?
A: The value was “significantly increased”.

Q: What about the adverse effects (experienced drug users; self-administered 2C-B, 10 to 20 mg) of the same compound?
A: The adverse effects was “no serious adverse effects”.

Q: Which reduction in immobility (Sprague Dawley rats [2]) does the source give for `CCN(CC)C(=O)[C@@H]1C=C2c3cccc4[nH]cc(c34)C[C@H]2N(C)C1` [LSD, lysergic acid-N,N-diethylamide] here?
A: Its reduction in immobility is 38%.

Q: With `CCC(Cc1ccc2c(c1)OCO2)NC` (centres unmarked) [MBDB, N-methyl-1-(1,3-benzodioxol-5-yl)-2-aminobutane] as the compound, how does the immobility (Sprague Dawley rats [1]; MBDB 5-30 mg/kg IP, 30 min before test) read?
A: Its immobility is “significantly reduced immobility”.

Q: What about the “extinction acquisition, first trial of extinction training” value (C57BL/6J mice) of the same compound?
A: The value was “improved extinction acquisition”.

Q: And the locomotor activity (C57BL/6J mice)?
A: Its locomotor activity is “small, but significant increase in locomotor activity”.

Q: What about the “serotonergic terminals destroyed in the cortex and hippocampus” value [3] of the same compound?
A: Its value is 55-60%.

Q: And the adverse effects (experienced drug users; self-administered MBDB, 100 to 300 mg)?
A: The adverse effects was “no serious adverse effects”.

Q: Which “times greater affinity for the 5HT2B receptor compared with methylone” value [4] does the source give for `CC(N)Cc1ccc2c(c1)OCO2` (centres unmarked) [MDA] here?
A: The value was 37 times.

Q: With `CNCCC(Oc1ccc(C(F)(F)F)cc1)c1ccccc1` (centres unmarked) [fluoxetine, reference compound] as the compound, how does the swimming behavior (Sprague Dawley rats [1]; Example 8, fluoxetine 10 mg/kg IP x3) read?
A: Its swimming behavior is “significantly increased swimming behavior”.

Q: With `CN(C)CCc1c[nH]c2cccc(OP(=O)(O)O)c12` [psilocybin] as the compound, how does the reduction in immobility (Sprague Dawley rats [2]) read?
A: Its reduction in immobility is 67%.
